Patent US10561676B2, “Method for treating cancer using dual antagonists of CXCR1 and CXCR2” (Syntrix Biosystems, Inc., priority 2018, dated 2020)

Legend:
[1] = Stability in human liver microsomes (NADPH-dependent); format: in vitro ADME; settings: 37° C., NADPH-dependent
Procedure: The compounds were incubated in duplicate with human liver microsomes at 37° C. The reaction contained microsomal protein in 100 mM potassium phosphate, 2 mM NADPH, 3 mM MgCl2, pH 7.4. A control was run for each compound omitting NADPH to detect NADPH-independent degradation. An aliquot was removed from each experimental and control reaction at 0, 10, 20, 30, and 60 minutes and mixed with an equal volume of ice-cold Stop Solution (0.3% acetic acid in acetonitrile containing haloperidol, diclofenac, or other internal standard). Stopped reactions were incubated for at least ten minutes at −20° C., and an additional volume of water was added. The samples were centrifuged to remove precipitated protein, and the supernatants were analyzed by LCMS/MS to quantitate the remaining compound. Data were converted to percent remaining by dividing by the time zero concentration value. Data were fit to a first-order decay model to determine half-life. Intrinsic clearance was calculated from the half-life and the protein concentrations: CLint=ln(2)/(t½[microsomal protein]). […] More surprising is that eliminating the ring nitrogen in SX-517 yielded a half-life even larger than that of SX-682. The results as a whole led to no SAR predictive of the surprising stability of SX-682.

[2] = Stability in human plasma; format: in vitro ADME; settings: for t½: 5 μM, 37° C., LC-MS/MS detection
Procedure: The in vitro stability of SX-682 and the congeners of Metabolic Stability Example 1 (FIG. 6) were further studied in human plasma. The reactions were initiated by the addition of 5 μl of a 500 μM DMSO stock solution to 495 μl of preheated plasma solution to yield a final concentration of 5 μM. The assays were performed in a heat block at 37° C. and conducted in duplicate. Samples (50 μl) were taken at 0, 30, 60, 120, 240 min and added to 150 μL acetonitrile in order to deproteinize the plasma. The samples were subjected to vortex mixing for 1 min and then centrifugation for 15 min at 14,000 rpm. The clear supernatants were analyzed by LC-MS.
The in vitro plasma half-life (t½) was calculated using the expression t½=ln(2)/b where b is the slope found in the linear fit of the natural logarithm of the fraction remaining of the parent compound vs. incubation time.

neutrophils = assay: Murine air-pouch model of inflammation; format: in vivo; settings: depending on the dose given
[3] = test system: C3Tag mouse model of breast cancer; assay: C3Tag mouse model of breast cancer; format: in vivo; settings: SX-682 10 mg/day/mouse oral; carboplatin 50 mg/kg weekly i.p.; vehicle 18 days
Description: The C31-T-antigen (C3Tag) mouse model is a validated model of human triple-negative basal cell breast cancer as shown by gene expression analysis (Maroulakou, 1994, Proc Natl Acad Sci, 91:11236-40, herein incorporated by reference). The expressed large T-antigen binds and inactivates the RB and p53 tumor suppressor genes, explaining why this model faithfully recapitulates human basal breast cancer, which also harbors RB and p53 inactivation. This model also has frequent K-Ras amplification and infrequent Ras mutations. Treatment regimens were started following tumor manifestation. SX-682 was given orally via medicated feed, at an approximate dose of 10 mg/day/mouse. CP was administered once weekly via intraperitoneal injection at a dose of 50 mg/kg.

Sprague-Dawley rats = assay: Ozone rat model of pulmonary inflammation (neutrophil influx into BALF); format: in vivo; settings: 1 mg/kg i.v. once, 1 ppm ozone 4 hours, BALF at 24 hours
Procedure: SX-682 was assayed in an in vivo rat model of pulmonary inflammation. Activity in this model of pulmonary inflammation provides evidence that supports the use of SX-682 in the treatment of a number of pulmonary inflammatory diseases, including chronic obstructive pulmonary disease (COPD) and bronchopulmonary dysplasia (BPD). In this experiment, Sprague-Dawley rats (n=4 per cohort) were dosed intravenously only once at t=0 with either vehicle control (dimethylformamide/PEG400/saline, 40:40:20), positive inhibitor control (SX-576, 1 mg/kg) or the test compound (SX-682, 1 mg/kg). The rats were then placed in air (negative exposure group; vehicle control only) or 1 ppm ozone (positive exposure group; vehicle control, positive inhibitor control SX-576, and test compound SX-682) for 4 hours. The rats were then sacrificed at t=24 hours, and the bronchoalveolar lavage fluid (BALF) was collected. The cells were spun down, stained with Wright-Giemsa and counted. In the negative exposure group, no neutrophils were observed when stained. In the ozone exposed rats treated with vehicle however, there was a brisk influx of neutrophils of approximately 14,000 per mL of BALF (FIG. 5).

Row | Structure (SMILES) | t½, half-life [1] [h] | t½ [2] [h] | reduction in plasma half-life ([2]; relative to SX-682/SX-576) [fold] | activity on neutrophils (neutrophils) | median survival, single agent [3] [days] | influx of neutrophils into the lungs (BALF) vs vehicle (Sprague-Dawley rats)
1 | O=C(Nc1ccc(F)cc1)c1ccc(SCc2ccccc2B(O)O)nc1 [SX-517] | 6.75 | 1.88 | 5 | both inhibitory and agonist activity on neutrophils were achieved | – | –
2 | N.N.O=C([O-])C1(C(=O)[O-])CCC1.[Pt+2] [carboplatin, reference compound] | – | – | – | – | 28 | –
3 | O=C(Nc1ccc(F)cc1)c1ccc(SCc2cc(OC(F)(F)F)ccc2B(O)O)nc1 [SX-576] | 0.833 | 8.88 | – | both inhibitory and agonist activity on neutrophils were achieved | – | significantly decreased the influx of neutrophils
